Source: US5583142A, “Analgesic and nootropic drugs” (priority 1992, dated 1996)
Where “and” joins values, the source holds several entries; their conditions need not be identical. Identical values can stand only once. Counter-ions that a name gives are not always drawn. Like-named read-outs stand apart in the source and are kept apart here.

Tests used:
rat tail-flick test = format: in vivo
Protocol: (§1) The analgesic action was detected in mouse, rat, guinea pig and dog. The mouse was subjected to hot plate and writhing tests; the rat to tail-flick and paw-pressure tests; the guinea pig to paw-pressure test only; the dog to the test described by Vainio et al. [J. Vet. Pharmacol. Ther., 12, 225-231 (1989)] using an electric stimulation. Consequently, the claimed compounds were tested with pain being induced by stimuli of different nature: thermal (hot plate and tail flick), chemical (writhing by acetic acid), mechanical (paw pressure) and electrical (cutaneous stimulation).
(§2) As already mentioned, the claimed products were assayed also in rat by the paw-pressure and tail-flick tests.
(§3) Both tests were carried out with the max. doses not impairing the rats normal behaviour. […] The painful stimulus utilized in the paw-pressure test involved the animal consciousness to a much greater extent than the stimulus used in the tail-flick test, in fact, the type and anatomic localization of the latter mainly involved a spinal response.
(§4) Both tests on rats were carried out with the max. doses not altering the behaviour of the treated animals.
The test was performed using th

[1] = mouse rota-rod test (16 r.p.m.)
Source text: All products tested to detect their antinociceptive activity had been previously tested by the rota-rod test to determine their maximum utilizable dose in analgesic tests. In fact, by this test it is possible to determine the highest dose of drug not impairing the normal performance of animals in a test that simultaneously evaluates motor coordination, equilibrium, resistance to fatigue, and muscle strength. This test is meant to evaluate the capability of mice to stay balanced on a rotating rod [cf. Vaught et al., Neuropharmacology, 24 (3) 211-216 (1985)].
The calculated doses were those used in the two analgesic tests on mice.

[2] = mouse acetic acid writhing test; format: in vivo; settings: for efficacy in writhing test, in words / number of writhes / Efficacy as analgesic (Morphine = 100) / percent inhibition: mouse; for Efficacy as analgesic (Morphine = 100) / percent inhibition: writhing; for ED50: mouse writhing
Protocol: as §1
The claimed molecules, chosen as examples, were also assayed in mice by the writhing test (Table 4). The test is meant to evaluate the products capability to prevent mice writhes ensuing abdominal pains caused by i.p. injection of a 0.6% aqueous solution of acetic acid.
Acetic acid solution = 0.6% v/v.

[3] = format: in vivo, mouse; settings: for ED50 compared with claimed compounds / analgesic efficacy / degree of analgesia compared with claimed compounds: mouse hot plate; for Efficacy as analgesic (Morphine = 100), AUC (Area Under Curve) / Efficacy as analgesic (Morphine = 100), M.E. (Maximum Analgesic Effect): in vivo
Protocol: as §1
(§5) Potency, efficacy and toxicity of SM21, PG9 and SM32 in comparison with
(§6) four principal reference analgesic drugs tested in mouse. As analgesic

rat paw-pressure test = format: in vivo
Protocol: as §1, §2, §3, §4

in vivo = settings: mouse
Source text: as §5, §6

[4] = paw-pressure test in rats with a lesion in the nucleus basalis magnocellularis (NBM); format: in vivo, rat; settings: 4 mg/kg i.p.
Source text: 3. […] In fact, as known, the magnocellular basal nucleus destruction causes the degeneration of most central cholinergic system.

[5] = 25 mg/kg i.p., 15 min after treatment
[6] = 25 mg/kg i.p., 30 min after treatment
[7] = 25 mg/kg i.p., 45 min after treatment
[8] = 25 mg/kg s.c., 15 min after treatment
[9] = 25 mg/kg s.c., 30 min after treatment
[10] = 25 mg/kg s.c., 45 min after treatment
[11] = mouse, 20 mg/kg i.p., 15 min after treatment
[12] = mouse, 20 mg/kg i.p., 30 min after treatment
[13] = mouse, 20 mg/kg i.p., 45 min after treatment
[14] = mouse, 20 mg/kg s.c., 15 min after treatment
[15] = mouse, 20 mg/kg s.c., 30 min after treatment
[16] = mouse, 20 mg/kg s.c., 45 min after treatment
[17] = 15 mg/kg i.p., 15 min after treatment
[18] = 15 mg/kg i.p., 30 min after treatment
[19] = 15 mg/kg i.p., 45 min after treatment
[20] = 100 mg/kg i.p., 15 min after treatment
[21] = 100 mg/kg i.p., 30 min after treatment
[22] = 100 mg/kg i.p., 45 min after treatment

CN(C)CCCN1c2ccccc2CCc2ccc(Cl)cc21 [Clomipramine HCl, reference compound]
activity in tail-flick test, in words (rat tail-flick test): inactive | tail-flick (rat tail-flick test; [5]): 2.9 ± 0.2 s | tail-flick (rat tail-flick test; [6]): 2.6 ± 0.1 s | tail-flick (rat tail-flick test; [7]): 2.6 ± 0.2 s | rota-rod performance (number of falls in 30 s) [1, 8]: 2.4 ± 0.5 falls in 30 s | rota-rod performance (number of falls in 30 s) [1, 9]: 2.1 ± 0.6 falls in 30 s | rota-rod performance (number of falls in 30 s) [1, 10]: 2.1 ± 0.6 falls in 30 s | rota-rod performance (number of falls in 30 s) ([1]; 45 mg/kg s.c., 15 min after treatment): 2.8 ± 0.4 falls in 30 s | rota-rod performance (number of falls in 30 s) ([1]; 45 mg/kg s.c., 30 min after treatment): 3.6 ± 0.4 falls in 30 s | rota-rod performance (number of falls in 30 s) ([1]; 45 mg/kg s.c., 45 min after treatment): 3.5 ± 0.6 falls in 30 s | rota-rod performance (number of falls in 30 s) ([1]; 50 mg/kg s.c., 15 min after treatment): 1.8 ± 0.4 falls in 30 s | rota-rod performance (number of falls in 30 s) ([1]; 50 mg/kg s.c., 30 min after treatment): 1.8 ± 0.4 falls in 30 s | rota-rod performance (number of falls in 30 s) ([1]; 50 mg/kg s.c., 45 min after treatment): 1.5 ± 0.4 falls in 30 s | rota-rod performance (number of falls in 30 s) ([1]; 60 mg/kg s.c., 15 min after treatment): 1.5 ± 0.4 falls in 30 s | rota-rod performance (number of falls in 30 s) ([1]; 60 mg/kg s.c., 30 min after treatment): 2.6 ± 0.3 falls in 30 s | rota-rod performance (number of falls in 30 s) ([1]; 60 mg/kg s.c., 45 min after treatment): 3.1 ± 0.5 falls in 30 s | NOAEL ([1]; mouse, in vivo, sc): 20.2 mg/kg | efficacy in writhing test, in words [2]: far less efficacious | number of writhes ([2]; 20 mg/kg s.c.): 18.2 ± 2.1 | Efficacy as analgesic (Morphine = 100) ([2]; 20 mg/kg s.c.): 63 | percent inhibition ([2]; 20 mg/kg s.c.): 46.8% | ED50 ([2]; sc): 9.7 mg/kg and 27.6 µmol/kg | ED50 compared with claimed compounds [3]: equivalent to those of the claimed compounds | analgesic efficacy / degree of analgesia compared with claimed compounds [3]: much lower degree of analgesia | Efficacy as analgesic (Morphine = 100), AUC (Area Under Curve) ([3]; mouse): 17 | Efficacy as analgesic (Morphine = 100), M.E. (Maximum Analgesic Effect) ([3]; mouse): 19 | hot-plate latency [3, 11]: 24.8 ± 2.8 s | hot-plate latency [3, 12]: 25.2 ± 2.2 s | hot-plate latency [3, 13]: 23.2 ± 2.1 s | hot-plate latency [3, 14]: 17.4 ± 1.1 s | hot-plate latency [3, 15]: 19.3 ± 0.9 s | hot-plate latency [3, 16]: 16.5 ± 0.8 s | activity in paw-pressure test, in words (rat paw-pressure test): almost equivalent analgesia | paw-pressure (rat paw-pressure test; [5]): 85.0 ± 6.8 g | paw-pressure (rat paw-pressure test; [6]): 99.0 ± 6.6 g | paw-pressure (rat paw-pressure test; [7]): 91.7 ± 7.4 g | LD50 (in vivo; iv): 44 mg/kg and 125 µmol/kg

CN(C)CCOC(c1ccccc1)c1ccccc1 [Diphenhydramine, reference compound]
activity in tail-flick test, in words (rat tail-flick test): inactive | tail-flick (rat tail-flick test; [17]): 2.9 ± 0.2 s | tail-flick (rat tail-flick test; [18]): 2.5 ± 0.2 s | tail-flick (rat tail-flick test; [19]): 2.5 ± 0.1 s | rota-rod performance (number of falls in 30 s) [1, 8]: 2.0 ± 0.5 falls in 30 s | rota-rod performance (number of falls in 30 s) [1, 9]: 1.0 ± 0.3 falls in 30 s | rota-rod performance (number of falls in 30 s) [1, 10]: 1.4 ± 0.4 falls in 30 s | rota-rod performance (number of falls in 30 s) ([1]; 30 mg/kg s.c., 15 min after treatment): 2.1 ± 0.4 falls in 30 s | rota-rod performance (number of falls in 30 s) ([1]; 30 mg/kg s.c., 30 min after treatment): 1.5 ± 0.3 falls in 30 s | rota-rod performance (number of falls in 30 s) ([1]; 30 mg/kg s.c., 45 min after treatment): 1.5 ± 0.4 falls in 30 s | rota-rod performance (number of falls in 30 s) ([1]; 40 mg/kg s.c., 15 min after treatment): 4.3 ± 0.4 falls in 30 s | rota-rod performance (number of falls in 30 s) ([1]; 40 mg/kg s.c., 30 min after treatment): 3.1 ± 0.4 falls in 30 s | rota-rod performance (number of falls in 30 s) ([1]; 40 mg/kg s.c., 45 min after treatment): 2.3 ± 0.4 falls in 30 s | efficacy in writhing test, in words [2]: far less efficacious | number of writhes ([2]; 20 mg/kg s.c.): 24.6 ± 2.4 | Efficacy as analgesic (Morphine = 100) ([2]; 20 mg/kg s.c.): 38 | percent inhibition ([2]; 20 mg/kg s.c.): 28.1% | ED50 ([2]; sc): 7.8 mg/kg and 30.5 µmol/kg | ED50 compared with claimed compounds [3]: equivalent to those of the claimed compounds | analgesic efficacy / degree of analgesia compared with claimed compounds [3]: much lower degree of analgesia | Efficacy as analgesic (Morphine = 100), M.E. (Maximum Analgesic Effect) ([3]; mouse): 43 | hot-plate latency [3, 11]: 21.6 ± 2.5 s | hot-plate latency [3, 12]: 17.7 ± 1.6 s | hot-plate latency [3, 13]: 17.1 ± 1.8 s | hot-plate latency [3, 14]: 23.6 ± 2.6 s | hot-plate latency [3, 15]: 18.0 ± 1.4 s | hot-plate latency [3, 16]: 18.7 ± 2.1 s | activity in paw-pressure test, in words (rat paw-pressure test): inactive | paw-pressure (rat paw-pressure test; [17]): 72.6 ± 6.8 g | paw-pressure (rat paw-pressure test; [18]): 70.0 ± 5.4 g | paw-pressure (rat paw-pressure test; [19]): 68.0 ± 6.6 g

O=C(c1ccccc1)c1ccc2n1CCC2C(=O)O (stereo not shown) [Ketorolac Trometamine]
activity in tail-flick test, in words (rat tail-flick test): inactive | tail-flick (rat tail-flick test; [20]): 3.3 ± 0.2 s | tail-flick (rat tail-flick test; [21]): 3.2 ± 0.2 s | tail-flick (rat tail-flick test; [22]): 2.6 ± 0.3 s | ED50 ([2]; ip): 8.3 mg/kg and 22 µmol/kg | efficacy in writhing test, in words [2]: higher than by morphine | number of writhes ([2]; 10 mg/kg i.p.): 6.3 ± 1.4 | number of writhes ([2]; 175 mg/kg i.p.): 0.3 ± 0.3 | Efficacy as analgesic (Morphine = 100) ([2]; 10 mg/kg i.p.): 110 | percent inhibition ([2]; 10 mg/kg i.p.): 81.6% | Efficacy as analgesic (Morphine = 100) ([2]; 175 mg/kg i.p.): 133 | percent inhibition ([2]; 175 mg/kg i.p.): 99.1% | Efficacy as analgesic (Morphine = 100), AUC (Area Under Curve) ([3]; mouse): 46 | Efficacy as analgesic (Morphine = 100), M.E. (Maximum Analgesic Effect) ([3]; mouse): 55 | hot-plate latency ([3]; mouse, 175 mg/kg i.p., 15 min after treatment): 26.5 ± 3.4 s | hot-plate latency ([3]; mouse, 175 mg/kg i.p., 30 min after treatment): 19.6 ± 1.4 s | hot-plate latency ([3]; mouse, 175 mg/kg i.p., 45 min after treatment): 17.7 ± 1.5 s | hot-plate latency ([3]; mouse, 175 mg/kg s.c., 15 min after treatment): 16.3 ± 1.1 s | hot-plate latency ([3]; mouse, 175 mg/kg s.c., 30 min after treatment): 15.0 ± 1.2 s | hot-plate latency ([3]; mouse, 175 mg/kg s.c., 45 min after treatment): 15.1 ± 1.6 s | activity on hot plate, s.c. administration ([3]; mouse, s.c.): inactive | activity in paw-pressure test, in words (rat paw-pressure test): almost equivalent analgesia | paw-pressure (rat paw-pressure test; [20]): 59.3 ± 5.6 g | paw-pressure (rat paw-pressure test; [21]): 97.4 ± 6.2 g | paw-pressure (rat paw-pressure test; [22]): 74.6 ± 5.8 g | LD50 (in vivo; ip): 1260 µmol/kg

NCC(CC(=O)O)c1ccc(Cl)cc1 (stereo not shown) [Baclofen, reference compound]
paw-pressure ([4]; lesioned (NBM) rats, 15 min after treatment): 117.4 ± 6.4 g | paw-pressure ([4]; lesioned (NBM) rats, 30 min after treatment): 137.9 ± 4.8 g | paw-pressure ([4]; lesioned (NBM) rats, 45 min after treatment): 131.8 ± 5.7 g | paw-pressure ([4]; sham rats, 15 min after treatment): 108.7 ± 6.6 g | paw-pressure ([4]; sham rats, 30 min after treatment): 132.8 ± 5.9 g | paw-pressure ([4]; sham rats, 45 min after treatment): 124.7 ± 5.8 g
